Data reported in patent publication US5534511A, “Aminoalkyl benzoxazolinones and benzothiazolinones” (Adir et Compagnie, priority 1994, dated 1996).

Test system: NMRI-CERJ mice
Test: Antagonism of the hypermotility induced by amphetamine
Assay type: in vivo
Conditions: d-amphetamine 4 mg kg^-1 IP, 30 minutes
Method: 4 mg kg^-1 of d-amphetamine are injected intraperitoneally (IP) into groups of 10 NMRI-CERJ mice immediately after IP injection of the compound to be tested, and the mice are placed in an actimeter for 30 minutes.
The number of interruptions of the photoelectric cells is counted, as is the stereotyped behavior.
The activity of the compounds tested is expressed as a percentage of the antagonism of the hyperactivity induced by amphetamine.

SMILES: Cn1c(=O)sc2cc(CCN3CCC(Cc4ccccc4)CC3)ccc21 [Example 1, 3-METHYL-6-[2-(4-BENZYLPIPERID-1-YL)ETHYL]BENZOTHIAZOLINONE]
- percentage of the antagonism of the hyperactivity induced by amphetamine (2 mg.kg^-1 IP): 23%
- percentage of the antagonism of the hyperactivity induced by amphetamine (4 mg.kg^-1 IP): 50%
- percentage of the antagonism of the hyperactivity induced by amphetamine (8 mg.kg^-1 IP): 63%
